Results on 23 compounds are retold here after PMC9822066 (Molecules, 2022).

Data set [1] addresses T1, electric eel AChE (eeAChE) (Electrophorus electricus, UniProt O42275).
T1 construct: purchased Sigma–Aldrich (Steinheim, Germany)
The data set is described as follows: biochemical. The conditions noted are these: triplicate independent experiments.

The target in data set [2] is T2, hMAO B (Homo sapiens, UniProt P27338).
T2 sequence (P27338 1-520): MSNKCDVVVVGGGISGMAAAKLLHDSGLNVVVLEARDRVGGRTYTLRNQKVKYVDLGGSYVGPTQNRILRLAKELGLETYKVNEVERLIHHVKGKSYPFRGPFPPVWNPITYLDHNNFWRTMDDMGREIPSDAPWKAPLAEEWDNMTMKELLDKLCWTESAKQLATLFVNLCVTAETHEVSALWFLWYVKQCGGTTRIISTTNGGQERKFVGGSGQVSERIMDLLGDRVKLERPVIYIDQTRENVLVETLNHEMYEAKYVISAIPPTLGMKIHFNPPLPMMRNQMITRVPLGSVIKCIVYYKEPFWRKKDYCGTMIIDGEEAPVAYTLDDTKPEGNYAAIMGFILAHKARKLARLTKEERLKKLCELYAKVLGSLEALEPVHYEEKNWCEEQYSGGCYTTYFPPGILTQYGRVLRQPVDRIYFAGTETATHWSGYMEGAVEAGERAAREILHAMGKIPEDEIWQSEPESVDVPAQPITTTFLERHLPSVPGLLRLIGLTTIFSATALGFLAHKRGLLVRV
The data set is described as follows: Fluorometric MAO assay, hMAO B inhibition. It counts as biochemical. The conditions noted are these: mean ± SEM of two independent experiments, read-out: hMAO B %Inh. at 1 µM.

Data set [3] concerns the target BuChE from equine serum (eqBuChE) (Equus caballus, UniProt P81908). The data set is described as follows: biochemical. The data set is classed as biochemical. The conditions noted are these: mean ± SEM, triplicate independent experiments.
In data set [4] the target is T3, human H3R (Homo sapiens, UniProt Q9Y5N1).
T3 construct: expressed in transfected cells; host or cells: HEK293
T3 sequence (Q9Y5N1 whole entry): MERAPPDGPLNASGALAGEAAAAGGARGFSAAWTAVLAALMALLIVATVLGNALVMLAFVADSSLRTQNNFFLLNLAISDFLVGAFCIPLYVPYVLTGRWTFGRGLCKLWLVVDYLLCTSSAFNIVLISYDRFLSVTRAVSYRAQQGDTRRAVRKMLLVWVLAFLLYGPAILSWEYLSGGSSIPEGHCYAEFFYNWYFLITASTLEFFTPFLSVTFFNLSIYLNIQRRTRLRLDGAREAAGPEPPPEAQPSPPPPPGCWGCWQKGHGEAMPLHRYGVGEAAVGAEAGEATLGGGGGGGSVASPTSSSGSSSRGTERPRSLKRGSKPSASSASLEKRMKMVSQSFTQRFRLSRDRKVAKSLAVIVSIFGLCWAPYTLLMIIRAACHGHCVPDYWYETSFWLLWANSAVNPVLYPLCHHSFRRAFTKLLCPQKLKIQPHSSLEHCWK

Data set [5] concerns equine BuChE. Set-up: method as in PMID 33991182, PMID 32882609, PMID 28832188, PMID 19222043, PMID 18396354. The conditions noted are these: Figure 2; read-out: equineBuChE IC50; cited from earlier work.
Data set [6] deals with hH3R. Particulars: Figure 2; read-out: humanH3R Ki; cited from earlier work.
In data set [7] the test system is human MAO B. Particulars: Figure 2; read-out: humanMAOB IC50; cited from earlier work.
In data set [8] the test system is electric eel AChE. More on the design: method as in PMID 33991182, PMID 32882609, PMID 28832188, PMID 19222043, PMID 18396354. Particulars: Figure 2; read-out: electric eelAChE IC50; cited from earlier work.
Data set [9] concerns human BuChE. The conditions noted are these: Figure 2; read-out: humanBuChE IC50; cited from earlier work.
For data set [10], the system named is human AChE. The conditions noted are these: Figure 2; read-out: humanAChE IC50; cited from earlier work.
The conditions of data set [11]: PAMPA, triplicate.
Data set [12] concerns the target T3, human H3R. The data set is described as follows: [3H]Nα-methylhistamine radioligand binding assay in HEK293 cells stably expressing hH3R. On the procedure: Final compounds were tested for their H3R affinity in a radioligand binding assay using [^3H]N^α-methylhistamine as radioligand in HEK293 cells stably expressing hH3R [25]. […] Affinity to hH3R stably expressed in HEK293 cells was evaluated in a radioligand binding assay as described previously. […] The radioactivity was counted in a MicroBeta Trilux counter (PerkinElmer). Data were fitted to a one-site curve-fitting equation with Prism 6 (GraphPad Software, San Diego, CA, USA) and Ki values were calculated from IC50 values (from at least three experiments performed in duplicates) according to the Cheng−Prusoff equation [52].

The test system of data set [13] is hepatoma HepG2 cells. The data set is described as follows: Hepatotoxicity, MTS viability of HepG2 cells. The conditions noted are these: 72 h incubation, MTS.
Experimental: Doxorubicin (DX) at the concentration of 1 μM was used as the reference cytostatic drug.
A multifunctional reader EnSpire (PerkinElmer, Waltham, MA, USA) was used to measure the absorbance.
For data set [14], the system named is SH-SY5Y neuroblastoma cells. In words: Neuroprotection against H2O2, MTS viability assay. The data set is classed as cell-based. Particulars: 50 µM, 300 µM H2O2, 24 h.
The test system of data set [15] is SH-SY5Y neuroblastoma cells. In words: Neuroprotection against H2O2, LDH necrosis assay. The data set is classed as cell-based. The conditions noted are these: 50 µM, 300 µM H2O2, 24 h.
Setting [16] is: mean ± SEM, read-out: eeAChE IC50.
Setting [17] is: values marked *; mean [95% CI]; read-out: hH3R Ki; cited from earlier work.
[18] abbreviates: read-out: hH3R Ki; values marked *; mean [95% CI]; cited from earlier work.

Where a name gives a salt, the structure may show the parent alone. Read-outs that look alike come from different tables or passages of the source.

T1 sequence (O42275 24-633): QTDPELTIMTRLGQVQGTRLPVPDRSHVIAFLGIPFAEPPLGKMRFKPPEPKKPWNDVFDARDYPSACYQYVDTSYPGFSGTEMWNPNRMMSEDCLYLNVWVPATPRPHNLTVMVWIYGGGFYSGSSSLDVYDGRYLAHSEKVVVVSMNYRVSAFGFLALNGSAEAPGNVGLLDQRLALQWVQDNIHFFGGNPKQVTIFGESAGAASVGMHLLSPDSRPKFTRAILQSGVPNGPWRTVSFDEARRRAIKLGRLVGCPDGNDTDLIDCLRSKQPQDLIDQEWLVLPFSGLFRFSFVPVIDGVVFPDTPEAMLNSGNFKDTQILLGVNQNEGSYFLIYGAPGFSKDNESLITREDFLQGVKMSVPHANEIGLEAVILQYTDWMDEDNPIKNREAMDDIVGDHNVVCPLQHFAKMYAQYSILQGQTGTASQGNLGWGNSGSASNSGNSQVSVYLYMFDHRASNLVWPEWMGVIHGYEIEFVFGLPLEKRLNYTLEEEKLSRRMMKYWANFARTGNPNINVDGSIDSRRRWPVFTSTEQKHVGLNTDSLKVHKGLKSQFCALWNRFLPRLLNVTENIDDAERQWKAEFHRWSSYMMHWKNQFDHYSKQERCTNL
BuChE from equine serum (eqBuChE), sequence (P81908 whole entry): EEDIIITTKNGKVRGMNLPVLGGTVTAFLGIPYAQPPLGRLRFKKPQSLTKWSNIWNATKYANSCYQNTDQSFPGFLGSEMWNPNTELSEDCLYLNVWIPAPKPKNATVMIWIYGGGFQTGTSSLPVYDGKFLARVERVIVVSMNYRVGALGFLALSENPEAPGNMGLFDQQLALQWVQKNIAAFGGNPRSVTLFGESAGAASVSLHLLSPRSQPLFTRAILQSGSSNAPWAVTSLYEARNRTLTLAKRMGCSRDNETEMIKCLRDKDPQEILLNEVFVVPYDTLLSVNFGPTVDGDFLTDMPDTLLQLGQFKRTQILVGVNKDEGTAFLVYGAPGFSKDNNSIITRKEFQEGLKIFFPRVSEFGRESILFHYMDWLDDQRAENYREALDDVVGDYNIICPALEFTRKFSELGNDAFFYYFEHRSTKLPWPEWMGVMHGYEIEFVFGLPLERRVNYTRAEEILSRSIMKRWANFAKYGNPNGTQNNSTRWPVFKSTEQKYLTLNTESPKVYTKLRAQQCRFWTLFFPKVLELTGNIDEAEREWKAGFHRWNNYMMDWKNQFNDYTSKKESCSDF

As for `O=C(c1ccccc1)c1cccc(OCCCCCCN2CCCCC2)c1` [Compound 8, Phenyl (3-((6-(piperidin-1-yl)hexyl)oxy)phenyl)methanone hydrogen oxalate], the 50% inhibitory concentration (IC50) came out at 3630 ± 111 nM in [1] (setting [16]) and 2100 ± 60 nM in data set [3]. Besides, the inhibition at 1 µM in [2] is 15%. Besides, the Ki in [4] (setting [17]) is 76 nM.

With `O=c1c2ccccc2oc2ccc(OCCCCCCN3CCCCCC3)cc12` [compound II], the figures for the IC50 in data set [5], in [7] and in data set [8] were 610 nM, 390 nM and 310 nM, respectively. Also, the inhibition constant Ki in data set [6] is 500 nM.

Consider `CC1CCCN(CCCCCCOc2cccc(C(=O)c3ccccc3)c2)C1` (centres unmarked) [Compound 18, (3-((6-(3-Methylpiperidin-1-yl)hexyl)oxy)phenyl)(phenyl)methanone hydrogen oxalate], for which the half-maximal inhibitory concentration (IC50) in data set [1] (setting [16]) was found to be 2000 ± 30 nM; in data set [3] it was 2900 ± 77 nM. The inhibition at 1 µM in [2] was 27%. Further, the Ki in [4] (setting [17]) is 110 nM.

For `CC1CCCN(CCCCCCOc2ccc(C(=O)c3ccccc3)cc2)C1` (centres unmarked) [Compound 19, (4-((6-(3-Methylpiperidin-1-yl)hexyl)oxy)phenyl)(phenyl)methanone hydrogen oxalate], the concentration for half-maximal inhibition (IC50) in data set [1] (setting [16]) came out at 2110 ± 50 nM; in data set [3] it was 1980 ± 34 nM. In addition, the inhibition at 1 µM in data set [2] is 7%. Also, in data set [4] (setting [17]), the Ki is 53 nM.

Turning to `CCN(CC)Cc1cc2c(=O)c3c(O)cccc3oc2cc1OCC=C(C)C` [compound III], the half-inhibitory concentration (IC50) in data set [5] is 510 nM; in [8], 2600 nM.

Regarding `O=C(c1ccccc1)c1cccc(OCCCCCCN2CCCCCC2)c1` [Compound 32, (3-((6-(Azepan-1-yl)hexyl)oxy)phenyl)(phenyl)methanone hydrogen oxalate], the concentration for half-maximal inhibition (IC50) in data set [1] (setting [16]) came out at 1550 ± 34 nM; in data set [3], 616 ± 2 nM. Also, in [2], the inhibition at 1 µM is 17%. Further, the Ki in data set [4] (setting [17]) was 70 nM.

For `O=C(c1ccccc1)c1ccc(OCCCCCCN2CCCCC2)cc1` [Compound 9, Phenyl (4-((6-(piperidin-1-yl)hexyl)oxy)phenyl)methanone hydrogen oxalate], the values for the IC50 in data set [1] (setting [16]) and in [3] were 3730 ± 85 nM and 1780 ± 34 nM, respectively. In addition, the inhibition at 1 µM in data set [2] was determined as 9%. Also, in data set [4] (setting [17]), the Ki is 41 nM.

Regarding `COc1ccc(C(=O)c2cccc(CN(C)Cc3ccccc3)c2)cc1OC` [compound V], the IC50 in [9] was 60700 nM; in [10] it was 460 nM.

With `Cn1c(=O)c2c(ncn2C)n(C)c1=O` [Caffeine, reference compound], in data set [11], the “Pe ± SD” value was 15.1 ± 0.4 10^−6 cm/s.

`O=C(c1ccccc1)c1ccc(OCCCCCCN2CCCCCC2)cc1` [Compound 33, (4-((6-(Azepan-1-yl)hexyl)oxy)phenyl)(phenyl)methanone hydrogen oxalate]: the values for the IC50 in [1] (setting [16]) and in data set [3] were 1810 ± 38 nM and 1280 ± 38 nM, respectively. The inhibition at 1 µM in data set [2] was found to be 23%. The Ki in data set [4] (setting [18]) was 41 nM.

Turning to `c1cc2c(cc1OCCCCCCN1CCCCC1)CN1CCCC1=N2` [compound IV], the IC50 is 1300 nM in [5] and 39.1 nM in data set [10]. Further, the Ki in data set [6] was 110 nM.

On to `CC1CCCN(CCCCCOc2cccc(C(=O)c3ccccc3)c2)C1` (centres unmarked) [Compound 13, (3-((5-(3-Methylpiperidin-1-yl)pentyl)oxy)phenyl)(phenyl)methanone hydrogen oxalate], for which the half-inhibitory concentration (IC50) was 3790 ± 104 nM in data set [1] (setting [16]) and 3420 ± 78 nM in data set [3]. Also, in [2], the inhibition at 1 µM was found to be 8%. For the same compound, in [12], the affinity, expressed as Ki, was 78 nM.

Take `O=C(c1ccccc1)c1cccc(OCCCCCN2CCCCC2)c1` [Compound 3, Phenyl (3-((5-(piperidin-1-yl)pentyl)oxy)phenyl)methanone hydrogen oxalate]: the half-maximal inhibitory concentration (IC50) in [1] (setting [16]) is 7750 ± 329 nM; in data set [3], 4010 ± 67 nM. Further, the inhibition at 1 µM in [2] amounted to 15%. The compound further returned an inhibitory constant (Ki) in data set [12] of 210 nM.

Turning to `COc1cccc2c1C(=O)c1c(O)c3c(c(O)c1C2=O)C[C@@](O)(C(=O)CO)C[C@@H]3O[C@H]1C[C@H](N)[C@H](O)[C@H](C)O1` [Doxorubicin, reference compound], in data set [13], the “concentration decreasing HepG2 cell viability” value was ≤ 1000 nM.

In the case of `CC1CCCN(CCCCCOc2ccc(C(=O)c3ccc(Cl)cc3)cc2)C1` (centres unmarked) [Compound 15, (4-Chlorophenyl) (4-((5-(3-methylpiperin-1-yl)pentyl)oxy)phenyl)methanone hydrogen oxalate], the IC50 in [1] (setting [16]) is 2650 ± 87 nM; in [3], 2560 ± 50 nM. Moreover, the inhibition at 1 µM in [2] came to 19%. For the same compound, the Ki in data set [12] (mean value within the 95% CI, three repetitions, read-out: hH3R Ki) came out at 37 nM.

On to `O=C(c1ccc(Cl)cc1)c1ccc(OCCCCCN2CCCCCC2)cc1` [Compound 29, (4-Chlorophenyl)(4-(5-(azepan-1-yl)pentyloxy)phenyl)methanone hydrogen oxalate], for which the figures for the half-inhibitory concentration (IC50) in data set [1] (setting [16]) and in data set [3] were 2240 ± 35 nM and 676 ± 3 nM, respectively. In [2], the inhibition at 1 µM came to 26%. Also, affinity in data set [12] was put at a Ki of 66 nM.

Consider `CC1CCCN(CCCCCOc2ccc(C(=O)c3ccccc3)cc2)C1` (centres unmarked) [Compound 14, (4-((5-(3-Methylpiperidin-1-yl)pentyl)oxy)phenyl)(phenyl)methanone hydrogen oxalate], for which the IC50 in [1] (setting [16]) came to 3180 ± 83 nM; in [3], 3780 ± 61 nM. In data set [2], the inhibition at 1 µM worked out at 9%. The Ki in [4] (setting [17]) was 40 nM.

Take `CC1CCN(CCCCCOc2cccc(C(=O)c3ccccc3)c2)CC1` [Compound 22, (3-((5-(4-Methylpiperidin-1-yl)pentyl)oxy)phenyl)(phenyl)methanone hydrogen oxalate]: the IC50 in data set [1] (setting [16]) is 4450 ± 94 nM; in data set [3], 1700 ± 46 nM. The inhibition at 1 µM in data set [2] was determined as 32%. Further, the Ki in [12] is 298 nM.

As for `C[C@@H]1NCCc2cc(O)c(O)cc21` [salsolinol, reference compound], the “effect on viability (MTS test)” value in [14] is on record as “statistically significantly increased the number of living cells”. The “effect on necrosis (LDH test)” value in data set [15] is listed as “lowered the number of necrotic cells to the control level”.

`CC1CCN(CCCCCCOc2cccc(C(=O)c3ccccc3)c2)CC1` [Compound 24, (3-((6-(4-Methylpiperidin-1-yl)hexyl)oxy)phenyl)(phenyl)methanone hydrogen oxalate]: the half-maximal inhibitory concentration (IC50) in data set [1] (setting [16]) amounted to 2460 ± 70 nM; in data set [3], 1060 ± 43 nM. Further, the inhibition at 1 µM in data set [2] was found to be 20%. For the same compound, in data set [12], the Ki worked out at 106 nM.

On to xanthostigmine, for which the IC50 in data set [9] is 48 nM; in data set [10], 0.3 nM.

Consider `O=C(c1ccccc1)c1ccc(OCCCCCN2CCCCCC2)cc1` [Compound 28, (4-((5-(Azepan-1-yl)pentyl)oxy)phenyl)(phenyl)methanone hydrogen oxalate], for which the IC50 in [1] (eeAChE IC50, mean ± SEM) is 4630 ± 100 nM; in data set [3], 678 ± 7 nM. For the same compound, the inhibition at 1 µM in data set [2] stood at 29%. The inhibitory constant (Ki) in [4] (setting [18]) is 39 nM.

Regarding `O=C(c1ccc(Cl)cc1)c1ccc(OCCCCCCN2CCCCCC2)cc1` [Compound 34, (4-Chlorophenyl)(4-((6-(azepan-1-yl)hexyl)oxy)phenyl)methanone hydrogen oxalate], the figures for the IC50 in data set [1] (setting [16]) and in data set [3] were 2033 ± 18 nM and 867 ± 2 nM, respectively. Moreover, in data set [2], the inhibition at 1 µM turned out to be 30%. Affinity in data set [12] was put at a Ki of 133 nM.
